Test results reported in patent US20090221690A1, “Pharmaceutical Composition for the Prevention/Treatment of Bone Disorders and a Process for the Preparation Thereof” (COUNCIL OF SCIENTIFIC AND INDUSTRIAL RESEARCH, priority 2006, published 2009).

Legend:
[1] = test system: osteoblasts; assay: Quantification of alkaline phosphatase activity in osteoblasts; format: cell-based, Balb/c mouse; parameters: alkaline phosphatase activity: unit not given here; conditions: 48 h; for alkaline phosphatase activity: Control 1.87 ± 0.20, Mean±SEM; for expression of alkaline phosphatase vs vehicle control: 10^−11 M to 10^−5 M
Experimental: (§1) Neonatal mouse calvarial cell cultures are prepared as described previously (Endocrinology 139:4743) using slight modification. Briefly, for primary osteoblast cell cultures, frontal and parietal bones from Balb/c mouse neonates (1-3 day old) are digested in 0.1% collagenase/0.1% dispase in α-MEM to obtain 5 sequential digests. The second through fifth digests are combined and grown to confluence at 37° C. and 5% CO2 in air in α-MEM, supplemented with 10% fetal bovine serum (FBS), 2 mM glutamine, 100 U/ml penicillin-streptomycin, Non-essential amino acid solution and sodium pyruvate. The effect of test agents is analysed using the following tests:
p-Nitrophenol phosphate is a colorless substrate which is hydrolysed to colored p-nitrophenol by alkaline phosphatase enzyme. Rate of hydrolysis of p-nitrophenol phosphate is proportional to enzyme present in sample. […] Findings reveal that all the five pure compounds nos.

[2] = test system: osteoblasts cultured on sterile bovine bone slices; assay: Mineralisation by osteoblasts cultured on bovine bone slices, Alizarin red staining; format: cell-based, Balb/c mouse; conditions: osteoblasts on bovine bone slices, 15 days; alone or in combination; FIGS. 14 and 15
Experimental: as §1
(§2) Cells are seeded onto sterile bovine bone slices in 96-well plate and treated with the culture medium containing α-MEM, supplemented with 10% fetal bovine serum, 2 mM glutamine, 100 U/ml penicillin-streptomycin, non-essential amino acid solution, sodium pyruvate, 10 mM P-glycerophosphate and 50 μg/ml ascorbic acid. Culture medium is changed every alternate day. At termination of the culture, cells are washed twice with PBS, fixed in cold 70% ethanol for 1 h and washed once with water and stained with 40 mM Alizarin red (pH 4.7) for 30 min and then washed in PBS to remove excess staining.
as §2, with “In case of osteoblasts” for “Cells are”, “slices, the cells are cultured” for “slices”, “in A-MEM” for “and treated with the culture medium containing α-MEM,”, “p-glycerophosphate” for “P-glycerophosphate”, “acid in the absence or presence of test compounds or their mixtures.” for “acid.”, “culture after 15 days,” for “culture,”

[3] = test system: osteoblasts; assay: Osteogenic activity of isolated compounds based on alkaline phosphatase expression, MTT and mineralisation in vitro; format: cell-based
Excerpt: K051, K052, K054, K080, K082 (isolated from n-butanol soluble fraction) and K095 (isolated from chloroform soluble fraction) (FIGS. 11-15; Tables 10-11).

[4] = test system: primary osteoblasts; assay: MTT assay for cell proliferation, primary osteoblast cell culture; format: cell-based, Balb/c mouse; conditions: for Osteoblast cell proliferation (MTT assay) / osteoblast cell proliferation vs vehicle control: 24 h; for Osteoblast cell proliferation (MTT assay): Vehicle 0.60 ± 0.06, Mean±SEM; for osteoblast cell proliferation vs vehicle control: 10^−11 M to 10^−5 M
Experimental: as §1
MTT assay is a common assay used for assessing cell proliferation where tetrazolium salt is reduced to formazone crystals by the mitochondrial dehydrogenase enzyme, which are then dissolved in DMSO. More the number of metabolically active cells more will be the formazone crystals formed. Briefly, osteoblast cells are maintained in α-MEM medium supplemented with 10% FCS and 1% antibiotic solution in 96 well plate. When the cells attain 40% confluency, they are treated in presence or absence of test agents in 2% FCS supplemented media for 24 h. Twenty-four hours thereafter, MTT salt is added to the cells. After 4 h, the formazone crystals formed are dissolved in DMSO and readings taken at wavelength of 570 nm.
This assay is based on the ability of viable cells to reduce tetrazolium salt to form formazone crystals by mitochondrial dehydrogenase enzyme. In MTT assay, osteoblasts are maintained in α-MEM medium supplemented with 10% FCS and 1% antibiotic solution in 96 well plate. When the cells attain 40% confluency, they are treated in presence or absence of test agents in 2% FCS supplemented media for 24 h. Twenty-four hours thereafter, MTT salt is added to the cells. After 4 h, the formazone crystals formed due to reduction of tetrazolium salt by mitochondrial dehydrogenase enzyme are dissolved in DMSO and readings taken at wavelength of 570 nm. All the five pure compounds nos.

[5] = test system: osteoblast cells; assay: Quantification of mineralization in osteoblasts (Alizarin red, acetic acid extraction); format: cell-based, Balb/c mouse; conditions: osteoblasts cultured 7 days; vs vehicle control; FIG. 13
Experimental: as §1
For quantification of mineralization which is measured with increased deposition of nascent calcium in osteoblast cells, cells were cultured in the presence of test compounds for 7 days and stained with Alizarin red. Alizarin red was extracted with acetic acid and the intensity of stain, which is directly proportion to the extent of mineralisation, is read at 405 nm.

Row | SMILES | alkaline phosphatase activity ([1]; 10^−5 M) | alkaline phosphatase activity ([1]; 10^−6 M) | alkaline phosphatase activity ([1]; 10^−7 M) | alkaline phosphatase activity ([1]; 10^−8 M) | alkaline phosphatase activity ([1]; 10^−9 M) | alkaline phosphatase activity ([1]; 10^−10 M) | expression of alkaline phosphatase vs vehicle control [1] | alkaline phosphatase activity ([1]; 10^−11 M) | intensity of alizarin red staining (rate of new bone formation) [2] | osteogenic activity [3] | Osteoblast cell proliferation (MTT assay) ([4]; 10^−5 M) | Osteoblast cell proliferation (MTT assay) ([4]; 10^−6 M) | Osteoblast cell proliferation (MTT assay) ([4]; 10^−7 M) | Osteoblast cell proliferation (MTT assay) ([4]; 10^−8 M) | Osteoblast cell proliferation (MTT assay) ([4]; 10^−9 M) | Osteoblast cell proliferation (MTT assay) ([4]; 10^−10 M) | osteoblast cell proliferation vs vehicle control [4] | Osteoblast cell proliferation (MTT assay) ([4]; 10^−11 M) | mineralisation quantified by alizarin extraction method [5] | relative potency in osteoblast proliferation (MTT) ([4]; order K052, K080, K095, K051, K054)
1 | COc1cc(O)c2c(=O)c(-c3ccc(O)cc3O)coc2c1 [Compound K051, 2′,4′,5-trihydroxy-7-methoxy isoflavones] | 3.26 ± 0.07 | 3.24 ± 0.09 | 3.23 ± 0.11 | 3.41 ± 0.12 | 3.50 ± 0.07 | 3.59 ± 0.08 | increased expression of alkaline phosphatase | 3.63 ± 0.04 | increased intensity of alizarin red staining | promising osteogenic activity | 1.32 ± 0.05 | 1.34 ± 0.09 | 1.33 ± 0.01 | 1.32 ± 0.04 | 1.03 ± 0.03 | 0.92 ± 0.05 | enhanced osteoblast cell proliferation | 0.85 ± 0.05 | enhanced mineralisation | –
2 | COc1ccc2c(=O)c(-c3ccc(O)cc3)coc2c1 [Compound K052, 4′-hydroxy, 7-methoxy-isoflavone] | 2.29 ± 0.24 | 3.01 ± 0.09 | 3.05 ± 0.10 | 3.20 ± 0.06 | 3.07 ± 0.10 | 3.01 ± 0.26 | increased expression of alkaline phosphatase | 3.17 ± 0.06 | increased intensity of alizarin red staining | promising osteogenic activity | 1.19 ± 0.01 | 1.86 ± 0.13 | 1.70 ± 0.15 | 1.73 ± 0.09 | 1.70 ± 0.08 | 1.43 ± 0.05 | enhanced osteoblast cell proliferation | 1.45 ± 0.23 | enhanced mineralisation | most potent
3 | COc1ccc(-c2c(C)oc3cc(O)ccc3c2=O)cc1 [Compound K082, 2-methyl, 7-hydroxy, 4′-methoxy isoflavone] | – | – | – | – | – | – | – | – | increased intensity of alizarin red staining | promising osteogenic activity | – | – | – | – | – | – | – | – | enhanced mineralisation | –
